Source: patent US12281080B2, “Quinoline-based compounds and methods of inhibiting CDK8/19” (University of South Carolina, priority 2018, dated 2025)

Key:
Assay in all cases: KINOMEscan scanMAX
Assay type in all cases: binding
Conditions in all cases: 2000 nM; read-out: Percent Control
TESK1 = TESK1 (Homo sapiens (Human), UniProt Q15569)
HIPK2 = HIPK2 (Homo sapiens (Human), UniProt Q9H2X6)
SRPK2 = SRPK2 (Homo sapiens (Human), UniProt P78362)
BLK = BLK (Homo sapiens (Human), UniProt P51451)
MEK3 (MAP2K3) = MEK3 (MAP2K3) (Homo sapiens (Human), UniProt P46734)
MLK1 (MAP3K9) = MLK1 (MAP3K9) (Homo sapiens (Human), UniProt P80192)
[1] = biological target: ABL1(F317I)-nonphosphorylated (Homo sapiens (Human), UniProt P00519, F317I)
RIOK3 = RIOK3 (Homo sapiens (Human), UniProt O14730)
ADCK4 = ADCK4 (Homo sapiens (Human), UniProt Q96D53)
MTOR = MTOR (Homo sapiens (Human), UniProt P42345)
BRK (PTK6) = BRK (PTK6) (Homo sapiens (Human), UniProt Q13882)
NEK11 = NEK11 (Homo sapiens (Human), UniProt Q8NG66)
ADCK3 (CABC1) = ADCK3 (CABC1) (Homo sapiens (Human), UniProt Q8NI60)
PIM2 = PIM2 (Homo sapiens (Human), UniProt Q9P1W9)
CHEK2 = CHEK2 (Homo sapiens (Human), UniProt O96017)
NEK1 = NEK1 (Homo sapiens (Human), UniProt Q96PY6)
BMPR1B = BMPR1B (Homo sapiens (Human), UniProt O00238)
ERK2 (MAPK1) = ERK2 (MAPK1) (Homo sapiens (Human), UniProt P28482)
AURKC = AURKC (Homo sapiens (Human), UniProt Q9UQB9)
CAMK1 = CAMK1 (Homo sapiens (Human), UniProt Q14012)
HIPK4 = HIPK4 (Homo sapiens (Human), UniProt Q8NE63)
p38-beta (MAPK11) = p38-beta (MAPK11) (Homo sapiens (Human), UniProt Q15759)
PLK4 = PLK4 (Homo sapiens (Human), UniProt O00444)
DYRK2 = DYRK2 (Homo sapiens (Human), UniProt Q92630)
PIM1 = PIM1 (Homo sapiens (Human), UniProt P11309)
TRKA (NTRK1) = TRKA (NTRK1) (Homo sapiens (Human), UniProt P04629)
RIPK5 (DSTYK) = RIPK5 (DSTYK) (Homo sapiens (Human), UniProt Q6XUX3)
MARK4 = MARK4 (Homo sapiens (Human), UniProt Q96L34)
STK16 = STK16 (Homo sapiens (Human), UniProt O75716)
CDK7 = CDK7 (Homo sapiens (Human), UniProt P50613)
RET = RET (Homo sapiens (Human), UniProt P07949)
PIK3CA(I800L) = PIK3CA(I800L) (Homo sapiens (Human), UniProt P42336, I800L)
CSF1R-autoinhibited = CSF1R-autoinhibited (Homo sapiens (Human), UniProt P07333)
TAK1 (MAP3K7) = TAK1 (MAP3K7) (Homo sapiens (Human), UniProt O43318)
[2] = biological target: ABL1(F317L)-nonphosphorylated (Homo sapiens (Human), UniProt P00519, F317L)
LIMK1 = LIMK1 (Homo sapiens (Human), UniProt P53667)
CDK4-cyclinD1 = CDK4-cyclinD1 (Homo sapiens (Human), UniProt P11802)
TGFBR2 = TGFBR2 (Homo sapiens (Human), UniProt P37173)
STK33 = STK33 (Homo sapiens (Human), UniProt Q9BYT3)
EIF2AK1 = EIF2AK1 (Homo sapiens (Human), UniProt Q9BQI3)

Sequence of LIMK1 (P53667 whole entry): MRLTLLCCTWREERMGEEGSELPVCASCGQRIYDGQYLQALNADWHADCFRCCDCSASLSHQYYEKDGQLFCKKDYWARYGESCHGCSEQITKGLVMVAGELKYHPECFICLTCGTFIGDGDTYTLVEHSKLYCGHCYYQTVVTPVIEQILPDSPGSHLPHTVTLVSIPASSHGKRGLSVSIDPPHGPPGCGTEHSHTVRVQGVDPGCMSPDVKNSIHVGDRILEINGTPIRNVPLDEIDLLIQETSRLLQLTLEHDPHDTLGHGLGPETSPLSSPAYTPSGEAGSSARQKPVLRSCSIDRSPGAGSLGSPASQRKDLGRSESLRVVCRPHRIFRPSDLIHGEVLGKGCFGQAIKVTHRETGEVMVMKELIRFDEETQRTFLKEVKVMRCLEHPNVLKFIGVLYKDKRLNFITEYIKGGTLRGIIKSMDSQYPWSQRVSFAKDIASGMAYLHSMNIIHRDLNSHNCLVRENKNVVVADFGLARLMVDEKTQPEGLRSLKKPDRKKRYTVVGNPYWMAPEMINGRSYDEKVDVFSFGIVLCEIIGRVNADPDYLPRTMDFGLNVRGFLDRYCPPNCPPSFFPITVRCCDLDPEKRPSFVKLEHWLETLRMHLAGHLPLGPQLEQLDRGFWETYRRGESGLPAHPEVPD
Sequence of CDK7 (P50613 whole entry): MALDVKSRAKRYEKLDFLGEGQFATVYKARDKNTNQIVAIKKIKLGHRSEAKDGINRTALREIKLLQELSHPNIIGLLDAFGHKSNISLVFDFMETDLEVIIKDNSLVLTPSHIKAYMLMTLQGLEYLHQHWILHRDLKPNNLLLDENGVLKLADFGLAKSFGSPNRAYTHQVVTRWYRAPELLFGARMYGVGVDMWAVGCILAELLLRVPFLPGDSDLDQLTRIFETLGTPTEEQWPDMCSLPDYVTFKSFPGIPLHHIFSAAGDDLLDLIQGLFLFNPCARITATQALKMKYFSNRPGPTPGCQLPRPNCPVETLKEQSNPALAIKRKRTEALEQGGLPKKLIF
Sequence of TAK1 (MAP3K7) (O43318 whole entry): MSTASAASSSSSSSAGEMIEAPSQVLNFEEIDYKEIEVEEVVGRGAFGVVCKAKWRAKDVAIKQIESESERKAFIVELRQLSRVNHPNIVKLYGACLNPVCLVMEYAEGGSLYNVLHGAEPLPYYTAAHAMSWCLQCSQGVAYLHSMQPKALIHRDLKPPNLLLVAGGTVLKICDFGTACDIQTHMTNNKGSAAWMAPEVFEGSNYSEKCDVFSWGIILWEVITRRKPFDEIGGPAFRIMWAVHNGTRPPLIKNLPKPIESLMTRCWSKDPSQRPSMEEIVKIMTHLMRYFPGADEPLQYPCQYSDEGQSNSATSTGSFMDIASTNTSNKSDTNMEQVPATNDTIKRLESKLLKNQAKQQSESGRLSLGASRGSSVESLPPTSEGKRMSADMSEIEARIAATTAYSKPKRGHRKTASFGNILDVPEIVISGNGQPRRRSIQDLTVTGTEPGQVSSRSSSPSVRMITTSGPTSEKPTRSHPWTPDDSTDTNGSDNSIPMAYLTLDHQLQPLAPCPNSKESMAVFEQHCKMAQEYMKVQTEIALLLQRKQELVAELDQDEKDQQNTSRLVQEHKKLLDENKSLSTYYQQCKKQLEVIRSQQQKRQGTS
Sequence of ADCK3 (CABC1) (Q8NI60 163-647): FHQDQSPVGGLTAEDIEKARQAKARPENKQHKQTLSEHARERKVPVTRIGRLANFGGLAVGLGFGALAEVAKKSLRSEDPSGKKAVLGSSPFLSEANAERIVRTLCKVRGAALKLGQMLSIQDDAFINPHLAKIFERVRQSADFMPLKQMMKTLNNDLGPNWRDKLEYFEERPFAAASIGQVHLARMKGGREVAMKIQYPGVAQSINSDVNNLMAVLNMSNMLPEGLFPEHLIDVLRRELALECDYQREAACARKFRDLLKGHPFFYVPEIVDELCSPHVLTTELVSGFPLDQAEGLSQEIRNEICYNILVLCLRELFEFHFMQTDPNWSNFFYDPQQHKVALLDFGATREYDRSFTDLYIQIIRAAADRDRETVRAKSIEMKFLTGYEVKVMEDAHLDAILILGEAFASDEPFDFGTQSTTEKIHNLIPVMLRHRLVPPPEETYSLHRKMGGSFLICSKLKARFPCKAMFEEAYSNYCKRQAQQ
Sequence of ERK2 (MAPK1) (P28482 whole entry): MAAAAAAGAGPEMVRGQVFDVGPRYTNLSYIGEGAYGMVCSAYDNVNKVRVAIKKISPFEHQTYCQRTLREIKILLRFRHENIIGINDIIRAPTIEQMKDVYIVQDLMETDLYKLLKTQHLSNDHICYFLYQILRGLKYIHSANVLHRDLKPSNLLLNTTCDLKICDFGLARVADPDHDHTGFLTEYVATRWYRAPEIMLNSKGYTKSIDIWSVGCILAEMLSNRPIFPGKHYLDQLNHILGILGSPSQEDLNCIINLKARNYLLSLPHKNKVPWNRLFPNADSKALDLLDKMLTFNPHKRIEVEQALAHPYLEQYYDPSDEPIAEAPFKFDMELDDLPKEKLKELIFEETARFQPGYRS
Sequence of PLK4 (O00444 whole entry): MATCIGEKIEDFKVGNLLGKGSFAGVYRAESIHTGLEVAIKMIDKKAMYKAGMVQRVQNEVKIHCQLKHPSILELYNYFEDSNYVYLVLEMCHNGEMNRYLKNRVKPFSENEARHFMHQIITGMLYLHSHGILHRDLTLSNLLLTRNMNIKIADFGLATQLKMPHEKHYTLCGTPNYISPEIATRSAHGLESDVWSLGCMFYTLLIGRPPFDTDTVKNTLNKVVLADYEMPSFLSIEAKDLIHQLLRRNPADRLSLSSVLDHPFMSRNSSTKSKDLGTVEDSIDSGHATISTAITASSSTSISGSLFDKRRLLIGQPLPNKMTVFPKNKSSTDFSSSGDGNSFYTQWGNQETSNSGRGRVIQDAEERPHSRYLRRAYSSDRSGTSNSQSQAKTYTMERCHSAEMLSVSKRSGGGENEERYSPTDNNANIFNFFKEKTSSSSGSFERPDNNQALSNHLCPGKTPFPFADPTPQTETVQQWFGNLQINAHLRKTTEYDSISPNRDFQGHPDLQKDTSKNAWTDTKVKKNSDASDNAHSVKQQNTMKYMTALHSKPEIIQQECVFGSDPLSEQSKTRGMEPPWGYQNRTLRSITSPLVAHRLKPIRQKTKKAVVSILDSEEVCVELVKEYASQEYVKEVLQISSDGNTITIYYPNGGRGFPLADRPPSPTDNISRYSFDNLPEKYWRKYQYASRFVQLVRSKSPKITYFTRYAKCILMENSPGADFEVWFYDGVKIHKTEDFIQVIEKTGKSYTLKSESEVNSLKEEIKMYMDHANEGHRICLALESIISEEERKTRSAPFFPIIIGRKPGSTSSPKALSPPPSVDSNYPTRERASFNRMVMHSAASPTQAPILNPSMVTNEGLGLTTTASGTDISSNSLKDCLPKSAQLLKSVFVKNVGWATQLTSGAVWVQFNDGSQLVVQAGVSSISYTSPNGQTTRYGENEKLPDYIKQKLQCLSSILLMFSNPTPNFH
Sequence of RET (P07949 29-1114): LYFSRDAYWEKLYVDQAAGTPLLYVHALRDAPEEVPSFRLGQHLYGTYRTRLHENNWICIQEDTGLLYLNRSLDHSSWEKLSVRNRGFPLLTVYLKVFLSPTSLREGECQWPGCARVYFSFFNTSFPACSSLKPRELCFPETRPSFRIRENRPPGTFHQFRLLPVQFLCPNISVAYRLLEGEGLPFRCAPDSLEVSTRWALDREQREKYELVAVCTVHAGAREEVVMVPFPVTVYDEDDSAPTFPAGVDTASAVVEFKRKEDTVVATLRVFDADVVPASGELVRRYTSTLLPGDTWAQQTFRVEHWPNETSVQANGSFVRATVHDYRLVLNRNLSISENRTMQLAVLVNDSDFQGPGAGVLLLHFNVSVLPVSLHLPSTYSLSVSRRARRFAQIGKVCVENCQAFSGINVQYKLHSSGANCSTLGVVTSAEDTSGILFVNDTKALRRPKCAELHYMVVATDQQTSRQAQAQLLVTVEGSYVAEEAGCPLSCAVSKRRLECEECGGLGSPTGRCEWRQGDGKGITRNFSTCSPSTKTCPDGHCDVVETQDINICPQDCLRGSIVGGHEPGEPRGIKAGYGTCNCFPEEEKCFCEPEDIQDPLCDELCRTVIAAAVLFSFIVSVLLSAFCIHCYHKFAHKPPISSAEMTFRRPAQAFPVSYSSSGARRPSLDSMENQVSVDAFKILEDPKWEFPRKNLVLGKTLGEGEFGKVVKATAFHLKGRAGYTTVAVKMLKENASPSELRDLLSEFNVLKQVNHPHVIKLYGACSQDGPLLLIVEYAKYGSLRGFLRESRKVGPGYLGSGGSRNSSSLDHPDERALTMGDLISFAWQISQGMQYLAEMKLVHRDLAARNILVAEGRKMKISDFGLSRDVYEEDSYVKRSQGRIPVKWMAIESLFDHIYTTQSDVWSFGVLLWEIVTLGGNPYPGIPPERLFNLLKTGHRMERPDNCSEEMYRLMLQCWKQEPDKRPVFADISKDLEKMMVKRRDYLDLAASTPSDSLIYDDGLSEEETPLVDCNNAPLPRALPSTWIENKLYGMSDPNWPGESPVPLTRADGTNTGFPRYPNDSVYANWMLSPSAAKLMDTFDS
Sequence of STK16 (O75716 whole entry): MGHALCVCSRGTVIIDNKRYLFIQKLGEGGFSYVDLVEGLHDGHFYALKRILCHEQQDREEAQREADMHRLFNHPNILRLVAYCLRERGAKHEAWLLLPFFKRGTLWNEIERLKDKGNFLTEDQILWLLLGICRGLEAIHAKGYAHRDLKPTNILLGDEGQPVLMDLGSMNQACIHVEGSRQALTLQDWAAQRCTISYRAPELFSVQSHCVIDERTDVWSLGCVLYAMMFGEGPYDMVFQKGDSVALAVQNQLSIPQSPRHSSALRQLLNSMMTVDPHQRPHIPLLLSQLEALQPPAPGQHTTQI

SMILES: CN1CCN(C(=O)c2ccc3cc(CCNc4ccnc5ccc(C#N)cc45)ccc3c2)CC1 [compound 6148, 4-((2-(6-(4-methylpiperazine-1-carbonyl)naphthalen-2-yl)ethyl)amino)quinoline-6-carbonitrile]
- remaining binding at 2 µM (TESK1): 96%
- remaining binding at 2 µM (HIPK2): 67%
- remaining binding at 2 µM (SRPK2): 94%
- remaining binding at 2 µM (BLK): 100%
- remaining binding at 2 µM (MEK3 (MAP2K3)): 87%
- remaining binding at 2 µM (MLK1 (MAP3K9)): 87%
- remaining binding at 2 µM [1]: 88%
- remaining binding at 2 µM (RIOK3): 85%
- remaining binding at 2 µM (ADCK4): 97%
- remaining binding at 2 µM (MTOR): 79%
- remaining binding at 2 µM (BRK (PTK6)): 97%
- remaining binding at 2 µM (NEK11): 60%
- remaining binding at 2 µM (ADCK3 (CABC1)): 100%
- remaining binding at 2 µM (PIM2): 81%
- remaining binding at 2 µM (CHEK2): 98%
- remaining binding at 2 µM (NEK1): 84%
- remaining binding at 2 µM (BMPR1B): 70%
- remaining binding at 2 µM (ERK2 (MAPK1)): 93%
- remaining binding at 2 µM (AURKC): 100%
- remaining binding at 2 µM (CAMK1): 84%
- remaining binding at 2 µM (HIPK4): 75%
- remaining binding at 2 µM (p38-beta (MAPK11)): 80%
- remaining binding at 2 µM (PLK4): 90%
- remaining binding at 2 µM (DYRK2): 68%
- remaining binding at 2 µM (PIM1): 62%
- remaining binding at 2 µM (TRKA (NTRK1)): 53%
- remaining binding at 2 µM (RIPK5 (DSTYK)): 69%
- remaining binding at 2 µM (MARK4): 78%
- remaining binding at 2 µM (STK16): 71%
- remaining binding at 2 µM (CDK7): 69%
- remaining binding at 2 µM (RET): 100%
- remaining binding at 2 µM (PIK3CA(I800L)): 72%
- remaining binding at 2 µM (CSF1R-autoinhibited): 91%
- remaining binding at 2 µM (TAK1 (MAP3K7)): 63%
- remaining binding at 2 µM [2]: 93%
- remaining binding at 2 µM (LIMK1): 95%
- remaining binding at 2 µM (CDK4-cyclinD1): 83%
- remaining binding at 2 µM (TGFBR2): 96%
- remaining binding at 2 µM (STK33): 93%
- remaining binding at 2 µM (EIF2AK1): 84%
